Results from PubChem BioAssay (NCI).
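All cell lines were grown in 96-well plates and treated with compound for 48 hours. The concentration for 50% growth inhibition is given as GI50. TGI is the concentration that stops growth completely.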

Assays:
Test in all cases: NCI tumour cell line growth inhibition, 48 h
[1] = system: SF-268 CNS
[2] = system: MDA-MB-435
[3] = system: SK-MEL-2 melanoma
[4] = system: K-562 leukemia
[5] = system: EKVX NSCLC
[6] = system: HCT-116 colon
[7] = system: A498 renal
[8] = system: HCC-2998 colon
[9] = system: NCI-H522 lung
[10] = system: NCI-H226 lung
[11] = system: HOP-92 NSCLC
[12] = system: MOLT-4 leukemia
[13] = system: RXF 393 renal
[14] = system: U251 CNS
[15] = system: SNB-19 CNS
[16] = system: MCF7 breast
[17] = system: SW-620 colon
[18] = system: SNB-75 CNS
[19] = system: OVCAR-5 ovarian
[20] = system: SF-539 CNS
[21] = system: 786-0 renal
[22] = system: CAKI-1 renal
[23] = system: TK-10 renal
[24] = system: MALME-3M melanoma
[25] = system: RPMI-8226 leukemia
[26] = system: NCI-H23 lung
[27] = system: DU-145 prostate
[28] = system: ACHN renal
[29] = system: MDA-MB-231 breast
[30] = system: LOX IMVI melanoma
[31] = system: NCI-H460 lung
[32] = system: SK-OV-3 ovarian
[33] = system: OVCAR-4 ovarian
[34] = system: UACC-62 melanoma
[35] = system: HT29 colon
[36] = system: MDA-MB-468 breast
[37] = system: IGROV1 ovarian
[38] = system: COLO 205 colon
[39] = system: M14 melanoma
[40] = system: PC-3 prostate
[41] = system: HL-60(TB) leukemia
[42] = system: OVCAR-8 ovarian
[43] = system: UACC-257 melanoma
[44] = system: T-47D breast
[45] = system: SK-MEL-5 melanoma
[46] = system: SN12C renal
[47] = system: A549 NSCLC
[48] = system: OVCAR-3 ovarian
[49] = system: KM12 colon
[50] = system: SF-295 CNS
[51] = system: SK-MEL-28 melanoma
[52] = system: BT-549 breast
[53] = system: SR leukemia
[54] = system: HS 578T breast
[55] = system: HOP-62 NSCLC
[56] = system: UO-31 renal
[57] = system: HCT-15 colon

N#CC1=C(c2ccco2)Nc2c(c(-c3ccccc3)nn2-c2ccccc2)C12C(=O)Nc1ccc(Br)cc12 (centres undefined)
GI50 [1]: 26.8 µM
TGI [1]: 74 µM
GI50 [2]: 24.2 µM
TGI [2]: 61.5 µM
GI50 [3]: 18.1 µM
TGI [3]: 36.7 µM
GI50 [4]: 38 µM
TGI [4]: > 100 µM
GI50 [5]: 20.9 µM
TGI [5]: 54.6 µM
GI50 [6]: 18.6 µM
TGI [6]: 36.3 µM
GI50 [7]: 16.8 µM
TGI [7]: 32.1 µM
GI50 [8]: 36.5 µM
TGI [8]: > 100 µM
GI50 [9]: 20.4 µM
TGI [9]: 48.4 µM
GI50 [10]: 21.1 µM
TGI [10]: 44.4 µM
GI50 [11]: 16.8 µM
TGI [11]: 33.2 µM
GI50 [12]: 35.2 µM
TGI [12]: > 100 µM
GI50 [13]: 17.3 µM
TGI [13]: 34.5 µM
GI50 [14]: 18 µM
TGI [14]: 33.4 µM
GI50 [15]: 18.6 µM
TGI [15]: 42.2 µM
GI50 [16]: 17.3 µM
TGI [16]: 33.1 µM
GI50 [17]: 30 µM
TGI [17]: 97.6 µM
GI50 [18]: 16 µM
TGI [18]: 38 µM
GI50 [19]: 19.1 µM
TGI [19]: 44.2 µM
GI50 [20]: 18.1 µM
TGI [20]: 35.1 µM
GI50 [21]: 21.3 µM
TGI [21]: 51.8 µM
GI50 [22]: 19.3 µM
TGI [22]: 43.2 µM
GI50 [23]: 17 µM
TGI [23]: 33.5 µM
GI50 [24]: 16.1 µM
TGI [24]: 29.9 µM
GI50 [25]: 35.9 µM
TGI [25]: > 100 µM
GI50 [26]: 21.5 µM
TGI [26]: 47.7 µM
GI50 [27]: 20.5 µM
TGI [27]: 40.2 µM
GI50 [28]: 18.7 µM
TGI [28]: 35.7 µM
GI50 [29]: 18.3 µM
TGI [29]: 34.2 µM
GI50 [30]: 18.1 µM
TGI [30]: 34.8 µM
GI50 [31]: 17.9 µM
TGI [31]: 33.4 µM
GI50 [32]: 17.3 µM
TGI [32]: 34.1 µM
GI50 [33]: 19.2 µM
TGI [33]: 40.7 µM
GI50 [34]: 17.2 µM
TGI [34]: 32.1 µM
GI50 [35]: 18.3 µM
TGI [35]: 35.2 µM
GI50 [36]: 26 µM
TGI [36]: 69.3 µM
GI50 [37]: 18.5 µM
TGI [37]: 34.6 µM
GI50 [38]: 25.4 µM
TGI [38]: 69.1 µM
GI50 [39]: 18.5 µM
TGI [39]: 36.8 µM
GI50 [40]: 16.2 µM
TGI [40]: 31.6 µM
GI50 [41]: 53.2 µM
TGI [41]: > 100 µM
GI50 [42]: 18 µM
TGI [42]: 33.1 µM
GI50 [43]: 20.5 µM
TGI [43]: 50.6 µM
GI50 [44]: 30.4 µM
TGI [44]: > 100 µM
GI50 [45]: 18 µM
TGI [45]: 32.6 µM
GI50 [46]: 18.3 µM
TGI [46]: 35.6 µM
GI50 [47]: 17.4 µM
TGI [47]: 33 µM
GI50 [48]: 28.9 µM
TGI [48]: 96.4 µM
GI50 [49]: 33.2 µM
TGI [49]: > 100 µM
GI50 [50]: 19.6 µM
TGI [50]: 50 µM
GI50 [51]: 17.9 µM
TGI [51]: 33.6 µM
GI50 [52]: 14.6 µM
TGI [52]: 29.7 µM
GI50 [53]: 48.9 µM
TGI [53]: > 100 µM
GI50 [54]: 19.3 µM
TGI [54]: 47.8 µM
GI50 [55]: 18.4 µM
TGI [55]: 37.8 µM
GI50 [56]: 28.1 µM
TGI [56]: > 100 µM
GI50 [57]: 18.1 µM
TGI [57]: 36.9 µM
